{"source": "patent US20030013637A1", "about": "“Novel anti-autoimmune composition by inhibition of GRF action” (priority 2001, published 2003)", "tested_on": "EAE-induced PLSJLF1/J mice", "assay": "Effect of GRF antagonist administration on experimental autoimmune encephalomyelitis (EAE) induced by rabbit MBP immunization and pertussis toxin", "type": "in vivo", "protocol": "In order to investigate the affect of the administration of GRF antagonist on the onset of autoimmune disease, studies were conducted using experimental autoimmune encephalomyelitis (EAE), which is an experimental animal model of human multiple sclerosis.\nWild mice (PLSJLF1/J) (females purchased from The Jackson Laboratory) were used in the experiment. The mice were purchased at five weeks of age, and were reared under artificial lighting from 8:00 am to 8:00 pm every day throughout the experiment. The animals were allowed free access to water and solid food (CE-2; Japan CLEA).\nFirst, these mice (total ten animals) were sensitized by subcutaneous administration in the femoral area of 100 μL of an emulsion in a 1:1 mixture of complete Freund's adjuvant (CFA) (Difco Co.) to 2 mg/mL rabbit myelin basic protein (MBP) (manufactured by Sigma Co.) dissolved in physiological saline (manufactured by Otsuka Pharmaceutical Co. Ltd.). Pertussis toxin (manufactured by List Biological Laboratories) (200 ng) dissolved in physiological saline (manufactured by Otsuka Pharmaceutical Co. Ltd.) was intra-abdominally administered immediately after and two days after sensitization. In this manner, experimental autoimmune encephalomyelitis (EAE) was induced.\nNext, GRF antagonist was administered in compliance with the following procedures. The mice (total of ten animals) that had been MBP sensitized and administered pertussis toxin were divided into two groups. One group (five animals) was subcutaneously administered in the dorsal neck region 30 μg of GRF antagonist (MZ-4-71; manufactured by the US company Calbiochem Novabiochem) per mouse once per day from the eighth to 15th day after MBP sensitization (MZ-4-71 administration group). The other group (five animals) was subcutaneously administered in the dorsal neck region an equal amount of physiological saline in the same way as a control once per day from the eighth to 15th day after MBP sensitization (saline administration group). All animals were allowed free access to food and water throughout the entire rearing period including during the aforementioned experimental period.\nThe body weight of each mouse was measured every day. The EAE symptoms were observed. and EAE symptom scores were recorded based on the following criteria.\n0: No symptoms, 1: Paralysis of tail, 2: Mild paralysis of rear legs, 3: Moderate to severe paralysis of rear legs or mild paralysis of front legs, or both, 4: Complete paralysis of rear legs or moderate to severe paralysis of front legs, or both, 5: Paralysis of all four limbs or struggling with death, 6: Death", "data": [{"substance": "[Ibu^0, D-Arg^2, Phe(4-Cl)^6, Abu^15, Nle^27]hGHRH-(1-28)Agm [MZ-4-71]", "values": [{"measurement": "beginning of EAE onset", "setting": "PLSJLF1/J mice, 30 μg per mouse s.c. once per day, day 8 to 15 after MBP sensitization, FIG. 2(A)", "value": 11, "unit": "post-sensitization day"}, {"measurement": "beginning of flare-ups", "setting": "after remission, 30 μg per mouse s.c. once per day, day 8-15", "value": 20, "unit": "post-sensitization day"}, {"measurement": "mean EAE score", "setting": "beginning post-sensitization day 17, remissions in all the mice, 30 μg per mouse s.c. once per day, day 8-15", "value": 0}, {"measurement": "mean EAE score", "setting": "post-sensitization day 13, 30 μg per mouse s.c. once per day, day 8-15, score scale 0-6", "value": 0.3}, {"measurement": "peak mean EAE score", "setting": "post-sensitization day 23, peak over subsequent observation period, 30 μg per mouse s.c. once per day, day 8-15", "value": 2.2}, {"measurement": "EAE onset percentage", "setting": "post-sensitization day 26, 30 μg per mouse s.c. once per day, day 8-15, FIG. 2(B)", "value": "not more than 60%"}, {"measurement": "EAE scores compared to the saline administration group", "setting": "time course of mean values, FIG. 2(A)", "value": "lower EAE scores"}, {"measurement": "beginning of EAE onset compared to the saline administration group", "setting": "time course of onset percentage, FIG. 2(B)", "value": "a delay in the beginning of EAE onset"}]}]}
